Our source for the TGI values is PubChem BioAssay (NCI).

Among the test systems are UACC-62 melanoma; NCI-H226 lung; HCC-2998 colon; SK-MEL-5 melanoma; MDA-MB-231 breast; MCF7 breast; OVCAR-3 ovarian; ACHN renal; MOLT-4 leukemia; HL-60(TB) leukemia.
What all share (assay): inhibition of tumour cell growth, NCI panel, 48 h

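Exposure lasted 48 hours, with cells grown in 96-well plates and compounds tested at five concentrations. The concentration for full growth arrest is given as TGI.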

On to `Cc1cc(OP2(=O)NCc3ccncc3O2)ccc1Cl` (stereo unspecified), for which the TGI in the experiment with UACC-62 melanoma, with NCI-H226 lung, with HCC-2998 colon, in the experiment on SK-MEL-5 melanoma, in the experiment with MDA-MB-231 breast and in the experiment with MCF7 breast was above 100 µM in each case. The TGI in the experiment with OVCAR-3 ovarian, in the experiment with ACHN renal and in the experiment with MOLT-4 leukemia was above 100 µM in each case.
As for `C[C@H](CCC(=O)O)[C@H]1CC[C@H]2[C@@H]3[C@H](O)[C@H](O)[C@@H]4C[C@H](O)CC[C@]4(C)[C@H]3CC[C@]12C`, the TGI in the experiment on UACC-62 melanoma, in the experiment with NCI-H226 lung, in the experiment on HCC-2998 colon, in the experiment on HL-60(TB) leukemia, in the experiment with MDA-MB-231 breast and in the experiment on MCF7 breast was above 100 µM throughout. Also, the TGI in the experiment on ACHN renal and in the experiment with MOLT-4 leukemia was above 100 µM throughout.
Turning to `C[n+]1c2ccccc2n2c3ccccc3c(NCc3ccco3)c(C#N)c21`, the TGI with UACC-62 melanoma was determined as 11.7 µM; with NCI-H226 lung, 16 µM; in the experiment on HCC-2998 colon, 3.36 µM; in the experiment with SK-MEL-5 melanoma, 13.7 µM; in the experiment on HL-60(TB) leukemia, 8.69 µM; in the experiment on MDA-MB-231 breast, 16.6 µM. In addition, the TGI with MCF7 breast was 11.9 µM; in the experiment on OVCAR-3 ovarian, above 49.6 µM; in the experiment on ACHN renal, 9.08 µM.
`Cc1cn(C(CO)OC(CO)CN(O)C2C3CC4CC(C3)CC2C4)c(=O)[nH]c1=O` (stereo unspecified): the TGI with UACC-62 melanoma, in the experiment on NCI-H226 lung, with HCC-2998 colon, with SK-MEL-5 melanoma, in the experiment on HL-60(TB) leukemia and with MDA-MB-231 breast was above 100 µM each time. The TGI with MCF7 breast, in the experiment on ACHN renal and in the experiment on MOLT-4 leukemia was above 100 µM in each case.
As for `CCN(CC)CCOCCOCC1(c2ccc(Cl)c(Cl)c2)CCCCC1`, the TGI with UACC-62 melanoma was 22.1 µM; with NCI-H226 lung, 35.1 µM; in the experiment with HCC-2998 colon, 14.8 µM; in the experiment on SK-MEL-5 melanoma it was 4.88 µM; in the experiment on HL-60(TB) leukemia, 21 µM; with MDA-MB-231 breast, 23 µM. Moreover, the TGI in the experiment on MCF7 breast was found to be 20.3 µM; in the experiment with OVCAR-3 ovarian, 22.3 µM; in the experiment on ACHN renal, 28.5 µM; in the experiment on MOLT-4 leukemia, 13.2 µM.
In the case of `Cc1ccc(F)c2[nH]c(-c3ccccc3)cc(=O)c12`, the TGI is above 100 µM with UACC-62 melanoma; above 100 µM in the experiment on NCI-H226 lung; above 100 µM in the experiment on HCC-2998 colon; 14.9 µM with SK-MEL-5 melanoma; above 100 µM in the experiment on HL-60(TB) leukemia; above 100 µM with MDA-MB-231 breast. Also, the TGI in the experiment with MCF7 breast was above 20.4 µM; in the experiment with OVCAR-3 ovarian, above 100 µM; in the experiment with ACHN renal it was above 100 µM; in the experiment on MOLT-4 leukemia, above 100 µM.
For the molecule `COc1ccc2[nH]c3c(c2c1)CCc1c(OC)cccc1-3`, the TGI in the experiment on UACC-62 melanoma, in the experiment with NCI-H226 lung, in the experiment with HCC-2998 colon, in the experiment on SK-MEL-5 melanoma, with MDA-MB-231 breast and in the experiment with MCF7 breast was above 100 µM throughout. Besides, the TGI in the experiment on OVCAR-3 ovarian, with ACHN renal and in the experiment with MOLT-4 leukemia was above 100 µM each time.
As for `Fc1ccccc1-c1cc(=S)c2cc3c(cc2[nH]1)OCO3`, the TGI is above 30 µM in the experiment with UACC-62 melanoma; above 100 µM in the experiment on NCI-H226 lung; above 45.5 µM in the experiment on HCC-2998 colon; above 30.7 µM with SK-MEL-5 melanoma; above 100 µM in the experiment on MDA-MB-231 breast; above 100 µM in the experiment with MCF7 breast. Also, the TGI with OVCAR-3 ovarian is above 100 µM; in the experiment with ACHN renal, above 100 µM; in the experiment on MOLT-4 leukemia it was above 25.1 µM.
On to `CCc1cc2c(cc1C(=O)CCC(=O)O)CC1(C2)Cc2cc(CC)c(C(=O)CCC(=O)O)cc2C1`, for which the TGI with NCI-H226 lung, with HCC-2998 colon, in the experiment on SK-MEL-5 melanoma, in the experiment on HL-60(TB) leukemia, with MDA-MB-231 breast and in the experiment with MCF7 breast was above 100 µM in each case. In addition, the TGI with OVCAR-3 ovarian, with ACHN renal and in the experiment on MOLT-4 leukemia was above 100 µM throughout.
Regarding `C[C@H](CCC(=O)O)[C@H]1CC[C@H]2[C@@H]3[C@@H](O)C[C@@H]4C[C@H](O)CC[C@]4(C)[C@H]3C[C@H](O)[C@]12C`, the TGI with UACC-62 melanoma, in the experiment on NCI-H226 lung, in the experiment with HCC-2998 colon, with HL-60(TB) leukemia, with MDA-MB-231 breast and in the experiment with MCF7 breast was above 100 µM in each case. Further, the TGI with ACHN renal and in the experiment on MOLT-4 leukemia was above 100 µM throughout.
On to `O=C1C=CC(=O)c2c(O)c(NCCN3CCOCC3)c(Cl)c(O)c21`, for which the TGI in the experiment with UACC-62 melanoma was 3.03 µM; in the experiment on NCI-H226 lung, above 10 µM; with HCC-2998 colon it was 3.35 µM; with SK-MEL-5 melanoma it was 2.35 µM; with MDA-MB-231 breast, 6.43 µM; with MCF7 breast, 2.96 µM. Besides, the TGI stood at 7.26 µM with OVCAR-3 ovarian, 7.51 µM with ACHN renal and 3.89 µM with MOLT-4 leukemia.
`COC(=O)Cc1cccc2c(=O)c(S(=O)(=O)NC(=O)Nc3ccc(Cl)cc3)c(-c3ccccc3)oc12`: the TGI in the experiment with UACC-62 melanoma, in the experiment with NCI-H226 lung, in the experiment on HCC-2998 colon, with SK-MEL-5 melanoma, in the experiment with MDA-MB-231 breast and with MCF7 breast was above 100 µM in each case. Further, the TGI with OVCAR-3 ovarian is above 100 µM; with ACHN renal, 63.5 µM; in the experiment with MOLT-4 leukemia, above 100 µM.
As for `CCCC(=O)Oc1c2ccsc2c(OC(=O)CCC)c2ccsc12`, the TGI in the experiment with UACC-62 melanoma was 2.07 µM; with NCI-H226 lung, 7.15 µM; in the experiment with HCC-2998 colon, 6.71 µM; in the experiment with HL-60(TB) leukemia, 3.79 µM; in the experiment with MDA-MB-231 breast, 10.3 µM; in the experiment on MCF7 breast, 7.55 µM. For the same molecule, the TGI is 4.5 µM with OVCAR-3 ovarian, 9.99 µM in the experiment with ACHN renal and 7.63 µM with MOLT-4 leukemia.
Take `CCOP(=O)(OCC)/C(=C\n1ccc(=O)[nH]c1=S)C(=O)OC`: the TGI with UACC-62 melanoma, with NCI-H226 lung, with HCC-2998 colon, in the experiment with SK-MEL-5 melanoma, in the experiment with HL-60(TB) leukemia and in the experiment with MDA-MB-231 breast was above 100 µM each time. Further, the TGI with MCF7 breast, in the experiment with ACHN renal and in the experiment on MOLT-4 leukemia was above 100 µM each time.
